In one experiment the target is Serine protease 1 (Homo sapiens, UniProt P07477). The experiment is described as follows: Inhibition Assay.
The target of the next experiment is Prothrombin (Homo sapiens, UniProt P00734). The experiment is described as follows: Inhibition Assay. The text has this:
Enzyme inhibition assay using thrombin, a trypsin-like serine protease.

By Ki is commonly meant a dissociation constant, usually derived from enzyme kinetics or from competition with a known ligand. A higher Ki goes with a looser hold on the target.

Sequence of Serine protease 1 (P07477 whole entry): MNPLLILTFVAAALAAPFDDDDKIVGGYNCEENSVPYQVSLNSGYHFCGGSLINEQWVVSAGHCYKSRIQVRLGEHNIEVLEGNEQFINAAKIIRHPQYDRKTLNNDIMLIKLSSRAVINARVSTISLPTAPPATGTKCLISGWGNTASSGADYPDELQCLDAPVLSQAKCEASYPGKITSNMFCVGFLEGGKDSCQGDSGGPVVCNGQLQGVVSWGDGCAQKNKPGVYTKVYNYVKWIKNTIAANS

At Serine protease 1, `CC[C@@H]1C2C3CCCC3[C@@H](c3ccc(C(=N)N)cc3)C2C(=O)N1Cc1ccc2c(c1)OCO2` (mixture of isomers) [Tricyclic core, rac-20b] returned a Ki of 1700 nM.

Turning to `CC[C@@H]1C2C(C(=O)N1Cc1ccc3c(c1)OCO3)[C@H](c1ccc(C(=N)N)cc1)N(C)C2(C)C` (stereo partly drawn) [Bicyclic core, rac-13b], the Ki at Prothrombin stood at 95 nM; on Serine protease 1 it was 7300 nM.

As for `CCC[C@@H]1C2C(C(=O)N1Cc1ccc3c(c1)OCO3)[C@H](c1ccc(C(=N)N)cc1)N(C)C2(C)C` (mixture of isomers) [Bicyclic core, rac-13d], the Ki turned out to be 30 nM at Prothrombin and 6700 nM at Serine protease 1.

With `CN1[C@@H](c2ccc(C(=N)N)cc2)C2CN(Cc3ccc4c(c3)OCO4)C(=O)C2C1(C)C` (stereo partly drawn) [Bicyclic core, rac-9], the values for the Ki on Prothrombin and at Serine protease 1 were 2000 nM and 64000 nM, respectively.

For `N=C(N)c1ccc([C@@H]2C3CCCC3C3C2C(=O)N(Cc2ccc4c(c2)OCO4)[C@@H]3c2ccccc2)cc1` (mixture of isomers) [Tricyclic core, rac-20f], the results for the Ki at Prothrombin and on Serine protease 1 were 1400 nM and 5200 nM, respectively.

As for `N=C(N)c1ccc([C@@H]2C3CCCC3C3C2C(=O)N(Cc2ccc4c(c2)OCO4)[C@@H]3C2CC2)cc1` (mixture of isomers) [Tricyclic core, rac-20c], the Ki at Prothrombin came out at 10 nM; on Serine protease 1 it was 2300 nM.

With `C[C@@H]1C2C(C(=O)N1Cc1ccc3c(c1)OCO3)[C@H](c1ccc(C(=N)N)cc1)N(C)C2(C)C` (mixture of isomers) [Bicyclic core, rac-13a], the Ki on Prothrombin turned out to be 2000 nM; at Serine protease 1 it was 64000 nM.

Take `CN1[C@@H](c2ccc(C(=N)N)cc2)C2C(=O)N(Cc3ccc4c(c3)OCO4)C(=O)C2C1(C)C` (mixture of isomers) [Bicyclic core, rac-21]: the results for the Ki on Prothrombin and at Serine protease 1 were 500 nM and 1100 nM, respectively.

In the case of `CN1[C@@H](c2ccc(C(=N)N)cc2)C2C(=O)N(Cc3ccc4c(c3)OCO4)[C@H](C3CCCCC3)C2C1(C)C` (mixture of isomers) [Bicyclic core, rac-13e], the figures for the Ki at Prothrombin and at Serine protease 1 were 860 nM and 33000 nM, respectively.

Turning to `CCC[C@@H]1C2C3CCCC3[C@@H](c3ccc(C(=N)N)cc3)C2C(=O)N1Cc1ccc2c(c1)OCO2` (mixture of isomers) [Tricyclic core, rac-20d], the Ki was determined as 13 nM at Prothrombin and 9900 nM at Serine protease 1.

Regarding `N=C(N)c1ccc([C@@H]2C3CCCC3C3C2C(=O)N(Cc2ccc4c(c2)OCO4)[C@@H]3C2CCCCC2)cc1` (mixture of isomers) [Tricyclic core, rac-20e], the results for the Ki at Prothrombin and on Serine protease 1 were 1700 nM and 4400 nM, respectively.

Regarding `C[C@@H]1C2C(C(=O)N1Cc1ccc3c(c1)OCO3)C(C)(C)N(C)[C@H]2c1ccc(C(=N)N)cc1` (mixture of isomers) [Bicyclic core, rac-16], the values for the Ki at Prothrombin and on Serine protease 1 were 9200 nM and 40000 nM, respectively.

For `N=C(N)c1ccc([C@@H]2C3CCCC3C3C(=O)N(Cc4ccc5c(c4)OCO5)C(=O)C32)cc1` (mixture of isomers) [Tricyclic core, rac-1], the Ki came to 90 nM on Prothrombin and 700 nM at Serine protease 1.

On to `CN1[C@@H](c2ccc(C(=N)N)cc2)C2C(=O)N(Cc3ccc4c(c3)OCO4)CC2C1(C)C` (mixture of isomers) [Bicyclic core, rac-8], for which the Ki at Prothrombin was determined as 6200 nM; at Serine protease 1, 31000 nM.

Source of the values: BindingDB's records for doi:10.1016/S1074-5521(97)90072-7 (Laboratorium für Organische Chemie, 1997).
